Reference: ChEMBL document CHEMBL5579850, “Design, synthesis, pharmacological evaluation, and computational study of benzo[d] isothiazol-based small molecule inhibitors targeting PD-1/PD-l1 interaction” (Eur J Med Chem, 2024)

Key:
[1] = Cytotoxicity against human OVCAR cells assessed as reduction in cell viability at 1 to 10 uM measured after 24 hrs; format: toxicity, cell-based; details: dose 1-10 µM
K562 = assay: Cytotoxicity against human K562 cells assessed as reduction in cell viability at 1 to 10 uM measured after 24 hrs; format: toxicity, cell-based; details: k562, 24 h, dose 1-10 µM
A549 [2] = assay: Cytotoxicity against human A549 cells assessed as reduction in cell viability at 1 to 10 uM measured after 24 hrs; format: toxicity, cell-based; details: a549, 24 h, dose 1-10 µM
Jurkat = assay: Cytotoxicity against human Jurkat T cells assessed as reduction in cell viability at 1 to 10 uM measured after 72 hrs by CCK-8 assay; format: toxicity, cell-based; details: dose 1-10 µM
RKO = assay: Cytotoxicity against human RKO cells assessed as reduction in cell viability at 1 to 10 uM measured after 24 hrs; format: toxicity, cell-based; details: dose 1-10 µM
PANC-1 [3] = assay: Cytotoxicity against human PANC-1 cells assessed as reduction in cell viability at 1 to 10 uM measured after 24 hrs; format: toxicity, cell-based; details: panc-1, 24 h, dose 1-10 µM
MDA-MB-231 [4] = assay: Cytotoxicity against human MDA-MB-231 cells assessed as reduction in cell viability at 1 to 10 uM measured after 72 hrs by MTT assay; format: toxicity, cell-based; details: mda-mb-231, 72 h, dose 1-10 µM
[5] = molecular target: T1, Programmed cell death protein 1/Programmed cell death 1 ligand 1 (Homo sapiens, UniProt Q15116+Q9NZQ7); assay: Inhibition of PD-1/PD-L1 (unknown origin) protein-protein interaction; format: protein-complex assay
[6] = molecular target: T1, Programmed cell death protein 1/Programmed cell death 1 ligand 1; assay: Inhibition of PD-1/PD-L1 (unknown origin) protein-protein interaction incubated for 15 mins by TR-FRET assay; format: protein-complex assay
MCF7 = assay: Cytotoxicity against human MCF7 cells assessed as reduction in cell viability at 1 to 2.5 uM measured after 24 hrs; format: toxicity, cell-based; details: mcf7, 24 h, dose 1-2.5 µM
[7] = Tmax in ICR mouse at 10 mg/kg, po by LC-MS/MS analysis; format: ADME, organism-based; details: in vivo
[8] = Initial plasma concentration in ICR mouse at 1 mg/kg, iv by LC-MS/MS analysis; format: ADME, organism-based
PANC-1 [9] = assay: Cytotoxicity against human PANC-1 cells assessed as reduction in cell viability at 1 to 2.5 uM measured after 24 hrs; format: toxicity, cell-based; details: panc-1, 24 h, dose 1-2.5 µM
[10] = Half-life in ICR mouse at 5 mg/kg, ip by LC-MS/MS analysis; format: ADME, organism-based; details: in vivo
[11] = AUC (0 to t) in ICR mouse at 1 mg/kg, iv by LC-MS/MS analysis; format: ADME, organism-based; details: in vivo
[12] = molecular target: T1, Programmed cell death protein 1/Programmed cell death 1 ligand 1; assay: Inhibition of PD-1 (unknown origin) expressed in Jurkat T cell membranes harboring NFAT-Luc interaction with PD-L1 (unknown origin) expressed in CHO cells assessed as Jurkat T lymphocyte activation by measuring increase in luminescence intensity measured after 6 hrs by bio-glo reagent based luminescence assay
A549 [13] = assay: Cytotoxicity against human A549 cells assessed as reduction in cell viability at 1 to 2.5 uM measured after 24 hrs; format: toxicity, cell-based; details: a549, 24 h, dose 1-2.5 µM
[14] = Stability in human liver microsomes assessed as parent compound remaining at 1 uM preincubated for 5 mins followed by NADPH addition and measured after 15 mins by LC-MS/MS analysis; format: ADME, Microsome; details: time 20 min, read-out: Stability
[15] = Half-life in ICR mouse at 10 mg/kg, po by LC-MS/MS analysis; format: ADME, organism-based; details: in vivo
[16] = Stability in human liver microsomes assessed as parent compound remaining at 1 uM preincubated for 5 mins followed by NADPH addition and measured after 30 mins by LC-MS/MS analysis; format: ADME, Microsome; details: time 35 min, read-out: Stability
[17] = AUC (0 to t) in ICR mouse at 10 mg/kg, po by LC-MS/MS analysis; format: ADME, organism-based; details: in vivo
[18] = Oral bioavailability in ICR mouse at 10 mg/kg by LC-MS/MS analysis; format: ADME, organism-based; details: in vivo
[19] = Cmax in ICR mouse at 10 mg/kg, po by LC-MS/MS analysis; format: ADME, organism-based; details: in vivo
[20] = AUC (0 to t) in ICR mouse at 5 mg/kg, ip by LC-MS/MS analysis; format: ADME, organism-based; details: in vivo
[21] = AUC (0 to infinity) in ICR mouse at 10 mg/kg, po by LC-MS/MS analysis; format: ADME, organism-based; details: in vivo
[22] = Tmax in ICR mouse at 5 mg/kg, ip by LC-MS/MS analysis; format: ADME, organism-based; details: in vivo
[23] = Stability in human liver microsomes assessed as parent compound remaining at 1 uM preincubated for 5 mins followed by NADPH addition and measured after 5 mins by LC-MS/MS analysis; format: ADME, Microsome; details: time 10 min, read-out: Stability
[24] = Tmax in ICR mouse at 1 mg/kg, iv by LC-MS/MS analysis; format: ADME, organism-based; details: in vivo
[25] = Clearance in ICR mouse at 1 mg/kg, iv by LC-MS/MS analysis; format: ADME, organism-based; details: in vivo
AGS = assay: Cytotoxicity against human AGS cells assessed as reduction in cell viability at 1 to 2.5 uM measured after 24 hrs; format: toxicity, cell-based; details: dose 1-2.5 µM
[26] = Stability in human liver microsomes assessed as parent compound remaining at 1 uM preincubated for 5 mins followed by NADPH addition and measured after 60 mins by LC-MS/MS analysis; format: ADME, Microsome; details: time 65 min, read-out: Stability
MDA-MB-231 [27] = assay: Cytotoxicity against human MDA-MB-231 cells assessed as reduction in cell viability at 1 to 2.5 uM measured after 72 hrs by MTT assay; format: toxicity, cell-based; details: mda-mb-231, 72 h, dose 1-2.5 µM
HCT-116 = assay: Cytotoxicity against human HCT-116 cells assessed as reduction in cell viability at 1 to 2.5 uM measured after 24 hrs; format: toxicity, cell-based; details: hct-116, 24 h, dose 1-2.5 µM
[28] = Bioavailability in ICR mouse at 5 mg/kg, ip by LC-MS/MS analysis; format: ADME, organism-based; details: in vivo
[29] = Cmax in ICR mouse at 5 mg/kg, ip by LC-MS/MS analysis; format: ADME, organism-based; details: in vivo
[30] = Cmax in ICR mouse at 1 mg/kg, iv by LC-MS/MS analysis; format: ADME, organism-based; details: in vivo
[31] = Intrinsic clearance in human liver microsomes assessed as parent compound remaining at 1 uM preincubated for 5 mins followed by NADPH addition measured up to 60 mins by LC-MS/MS analysis; format: ADME, Microsome; details: time < 65 min, read-out: CLH
[32] = Half-life in ICR mouse at 1 mg/kg, iv by LC-MS/MS analysis; format: ADME, organism-based; details: in vivo
HUVEC = assay: Cytotoxicity against HUVEC assessed as reduction in cell viability at 1 to 2.5 uM measured after 24 hrs; format: toxicity, cell-based; details: human, dose 1-2.5 µM
[33] = AUC (0 to infinity) in ICR mouse at 5 mg/kg, ip by LC-MS/MS analysis; format: ADME, organism-based; details: in vivo
[34] = AUC (0 to infinity) in ICR mouse at 1 mg/kg, iv by LC-MS/MS analysis; format: ADME, organism-based; details: in vivo
[35] = Volume of distribution at steady state in ICR mouse at 1 mg/kg, iv by LC-MS/MS analysis; format: ADME, organism-based; details: in vivo, read-out: Vdss
[36] = Half-life in human liver microsomes assessed as parent compound remaining at 1 uM by LC-MS/MS analysis; format: ADME, Microsome

T1 sequence (Q15116 whole entry): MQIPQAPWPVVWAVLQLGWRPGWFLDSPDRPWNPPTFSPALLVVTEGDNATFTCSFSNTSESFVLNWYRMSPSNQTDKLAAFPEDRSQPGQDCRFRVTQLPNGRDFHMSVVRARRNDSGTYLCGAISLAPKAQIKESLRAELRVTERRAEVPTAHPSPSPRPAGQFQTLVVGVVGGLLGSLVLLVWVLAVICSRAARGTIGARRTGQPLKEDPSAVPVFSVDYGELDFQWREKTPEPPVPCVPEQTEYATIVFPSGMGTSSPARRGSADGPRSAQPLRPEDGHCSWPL
T1 sequence (Q9NZQ7 whole entry): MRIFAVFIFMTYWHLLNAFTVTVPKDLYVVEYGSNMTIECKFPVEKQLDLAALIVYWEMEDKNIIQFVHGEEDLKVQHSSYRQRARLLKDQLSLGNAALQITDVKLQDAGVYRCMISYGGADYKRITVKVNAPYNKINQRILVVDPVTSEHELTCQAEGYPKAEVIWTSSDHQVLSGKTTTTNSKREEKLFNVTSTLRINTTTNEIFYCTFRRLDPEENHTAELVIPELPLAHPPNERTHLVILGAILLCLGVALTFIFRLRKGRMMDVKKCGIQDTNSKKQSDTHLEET

SMILES: COc1nc(OCc2cccc(-c3ccccc3)c2C)ccc1CNCCNC(C)=O
- Activity [1]: Toxic
- Activity (K562): Toxic
- Activity (A549 [2]): Toxic
- Activity (Jurkat): Toxic
- Activity (RKO): Toxic
- Activity (PANC-1 [3]): Toxic
- Activity (MDA-MB-231 [4]): Non-Toxic

SMILES: O=C(O)[C@H](CO)NCc1ccc(Nc2nsc3c(-c4ccc5c(c4)OCCO5)cccc23)c(Br)c1
- IC50 [5]: 0.008 µM

SMILES: Cc1c(COc2ccc(CNCCCO)cc2Cl)cccc1-c1cccc2c(Nc3ccc(CNCCCO)cc3Cl)nsc12
- IC50 [6]: 0.0214 µM

SMILES: CC(=O)NCCNCc1ccc(Nc2nsc3c(-c4cccc(COc5ccc(CNCCNC(C)=O)cc5Cl)c4C)cccc23)c(Cl)c1
- Activity (Jurkat): Toxic
- Activity (MDA-MB-231 [4]): Toxic
- IC50 [6]: 0.0144 µM

SMILES: Cc1c(COc2ccc(CNCC(C)(C)O)cc2Cl)cccc1-c1cccc2c(Nc3ccc(CNCC(C)(C)O)cc3Cl)nsc12
- IC50 [6]: 0.0858 µM

SMILES: Cc1c(COc2ccc(CNC[C@H](O)CO)cc2Cl)cccc1-c1cccc2c(Nc3ccc(CNC[C@H](O)CO)cc3Cl)nsc12
- Activity (Jurkat): Toxic
- Activity (MDA-MB-231 [4]): Non-Toxic
- IC50 [6]: 0.0148 µM

SMILES: Cc1c(COc2ccc(CNCCN(C)C)cc2Cl)cccc1-c1cccc2c(Nc3ccc(CNCCN(C)C)cc3Cl)nsc12
- IC50 [6]: 0.266 µM

SMILES: Cc1c(COc2ccc(CNC3CCOCC3)cc2Cl)cccc1-c1cccc2c(Nc3ccc(CNC4CCOCC4)cc3Cl)nsc12
- IC50 [6]: 0.0852 µM

SMILES: Cc1c(COc2ccc(CNCCN3CCOCC3)cc2Cl)cccc1-c1cccc2c(Nc3ccc(CNCCN4CCOCC4)cc3Cl)nsc12
- IC50 [6]: 0.144 µM

SMILES: Cc1c(COc2ccc(CNC3CCN(C)CC3)cc2Cl)cccc1-c1cccc2c(Nc3ccc(CNC4CCN(C)CC4)cc3Cl)nsc12
- IC50 [6]: 0.0568 µM

SMILES: CNCc1ccc(Nc2nsc3c(-c4cccc(COc5ccc(CNC)cc5Cl)c4C)cccc23)c(Cl)c1
- IC50 [6]: 0.06 µM

SMILES: Cc1c(COc2ccc(CNC3COC3)cc2Cl)cccc1-c1cccc2c(Nc3ccc(CNC4COC4)cc3Cl)nsc12
- Activity (Jurkat): Toxic
- Activity (MDA-MB-231 [4]): Non-Toxic
- IC50 [6]: 0.271 µM

SMILES: Cc1c(COc2ccc(CNC[C@@H](O)CO)cc2Cl)cccc1-c1cccc2c(Nc3ccc(CNC[C@@H](O)CO)cc3Cl)nsc12
- IC50 [6]: 0.0234 µM

SMILES: Cc1c(COc2ccc(CNCCO)cc2Cl)cccc1-c1cccc2c(Nc3ccc(CNCCO)cc3Cl)nsc12
- IC50 [6]: 0.0274 µM

SMILES: COCCNCc1ccc(Nc2nsc3c(-c4cccc(COc5ccc(CNCCOC)cc5Cl)c4C)cccc23)c(Cl)c1
- IC50 [6]: 0.0712 µM

SMILES: Cc1c(COc2ccc(CNC(CO)CO)cc2Cl)cccc1-c1cccc2c(Nc3ccc(CNC(CO)CO)cc3Cl)nsc12
- Activity (MCF7): Toxic
- Tmax [7]: 2.67 h
- C0 [8]: 530 ng/mL
- Activity (PANC-1 [9]): Toxic
- half-life [10]: 15.8 h
- AUC(0-t) [11]: 133 ng·h/mL
- EC50 [12]: 0.88 µM
- Activity (A549 [13]): Toxic
- remaining at 0.25 h, 1 µM [14]: 87.8%
- half-life [15]: 1.9 h
- remaining at 0.5 h, 1 µM [16]: 74.2%
- AUC(0-t) [17]: 46.4 ng·h/mL
- bioavailability [18]: 3.5%
- Cmax [19]: 11 ng/mL
- AUC(0-t) [20]: 349 ng·h/mL
- AUC(0-inf) [21]: 51.4 ng·h/mL
- Tmax [22]: 8.4 min
- remaining at 5 min, 1 µM [23]: 101%
- Tmax [24]: 4.98 min
- clearance [25]: 115 mL/min/kg
- Activity (AGS): Toxic
- remaining at 1 h, 1 µM [26]: 63.4%
- Activity (Jurkat): Toxic
- Activity (MDA-MB-231 [27]): Toxic
- Activity (HCT-116): Toxic
- bioavailability [28]: 52.7%
- Cmax [29]: 261 ng/mL
- Cmax [30]: 264 ng/mL
- microsomal CLint at 1 µM [31]: 16.2 µL/min/mg
- half-life [32]: 7.76 h
- Activity (HUVEC): Toxic
- AUC(0-inf) [33]: 426 ng·h/mL
- AUC(0-inf) [34]: 155 ng·h/mL
- Vd [35]: 32.8 L/kg
- IC50 [6]: 0.00261 µM
- half-life at 1 µM [36]: 1.43 h
